# Measurements: publication PMC11221360 (Molecular psychiatry, 2023)
# Columns and labels:
# [1] = test system: rats; assay: Catalepsy score; format: in vivo, rat
# [2] = test system: rats; assay: Hotplate analgesia; format: in vivo, rat
# [3] = test system: rats; assay: Intravenous self-administration; format: in vivo, rat; details: for shape of IVSA dose-response / unit dose with peak infusion rates in IVSA dose response: trained rats; for acquisition of IVSA in dose finding experiments: rats, (R)-MTD at 50 μg/kg/infusion, (S)-MTD even at high unit doses
# [4] = test system: mice; assay: Psychomotor sensitization, repeated injections in open-field chambers; format: in vivo, mouse; details: for psychomotor sensitization: ip, three days, (R)-MTD 2, 5, 10, (R,S)-MTD 4, 10, 20, (S)-MTD 20, 30, 40 mg/kg
# [5] = test system: mice; assay: Acute locomotor activity; format: in vivo, mouse; details: for most effective dose for locomotor activation (inverted U) / effect on locomotion: sc; for effect on locomotion: after 60 minutes of habituation, (S)-MTD up to 100 mg/kg
# [6] = test system: extracellular dopamine in rat VTA; assay: In vivo microdialysis, perfusion into VTA, somatodendritic dopamine release; details: for effect on extracellular dopamine: local perfusion, (S)-MTD up to 100 μM
# [7] = target: SERT (Homo sapiens, UniProt P31645); assay: Receptor and enzyme competitive screen; format: binding; details: 100 nM
# [8] = test system: NMDARs; details: ref [10], cited from earlier work
# Chain of SERT (P31645 whole entry, species assumed): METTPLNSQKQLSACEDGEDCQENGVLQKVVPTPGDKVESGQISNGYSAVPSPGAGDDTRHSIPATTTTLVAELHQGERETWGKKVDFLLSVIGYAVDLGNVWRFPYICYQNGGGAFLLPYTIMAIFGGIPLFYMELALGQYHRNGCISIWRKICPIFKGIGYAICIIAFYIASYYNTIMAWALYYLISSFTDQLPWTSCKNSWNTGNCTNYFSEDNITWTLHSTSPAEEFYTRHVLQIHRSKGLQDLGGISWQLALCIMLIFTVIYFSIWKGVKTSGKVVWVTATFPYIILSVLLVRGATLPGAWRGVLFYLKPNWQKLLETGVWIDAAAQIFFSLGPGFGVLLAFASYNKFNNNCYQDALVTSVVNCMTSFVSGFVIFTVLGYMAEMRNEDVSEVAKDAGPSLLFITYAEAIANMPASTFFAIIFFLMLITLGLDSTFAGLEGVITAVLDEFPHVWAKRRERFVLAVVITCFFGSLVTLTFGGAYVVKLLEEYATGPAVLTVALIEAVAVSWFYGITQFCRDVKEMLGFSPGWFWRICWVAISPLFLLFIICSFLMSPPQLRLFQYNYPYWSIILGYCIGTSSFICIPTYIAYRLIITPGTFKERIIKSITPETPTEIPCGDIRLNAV
Compound,cataleptic ED50 (%MPE) [1],dose at which maximal cataleptic effects were observed [1],hotplate ED50 (%MPE) [2],hotplate agonist profile [2],shape of IVSA dose-response [3],unit dose with peak infusion rates in IVSA dose response [3],psychomotor sensitization [4],most effective dose for locomotor activation (inverted U) [5],effect on locomotion [5],effect on extracellular dopamine [6],acquisition of IVSA in dose finding experiments [3],other results
"CCC(=O)C(CC(C)N(C)C)(c1ccccc1)c1ccccc1 (racemic) [(R,S)-MTD, (R,S)-methadone]",2.1 mg/kg,10 mg/kg,1.2 mg/kg,full agonistic activity,inverted-U shaped dose-response curve,0.05 mg/kg,failed to show sensitization at any dose,10 mg/kg,increased locomotion,,,
CCC(=O)C(C[C@@H](C)N(C)C)(c1ccccc1)c1ccccc1 [(R)-MTD],0.9 mg/kg,3 mg/kg,0.5 mg/kg,full agonistic activity,inverted-U shaped dose-response curve,0.025 mg/kg,produced psychomotor sensitization at 10 mg/kg,3 mg/kg,increased locomotion,concentration-dependent increase in extracellular dopamine,readily self-administered,"maximum consumed at the highest dose in IVSA ([3]; rats exposed to (R)-MTD, dose finding): ~ 2 mg/kg; inhibition of binding at SERT [7]: 68%"
"CCC(=O)C(C[C@H](C)N(C)C)(c1ccccc1)c1ccccc1 [(S)-MTD, (S)-methadone]",,,,full agonistic activity,no evidence of dose response,,failed to show sensitization at any dose,,did not produce any significant locomotor-activating effects,did not induce any significant effect,never acquired IVSA,"effect on (R)-MTD (10 μM)-induced dopamine release ([6]; co-perfusion, (S)-MTD 100 μM): completely counteracted; catalepsy score agonist profile ([1]; up to 100 mg/kg): partial agonist; IVSA in (R)-MTD-trained rats switched to (S)-MTD ([3]; 500 μg/kg/infusion): reliable IVSA; cumulative dose consumed at the highest dose in IVSA ([3]; (R)-MTD-trained rats switched to (S)-MTD): ~ 30 mg/kg; effect of pretreatment on (R)-MTD-induced (10 mg/kg, ip) sensitization ([4]; (S)-MTD 10 or 30 mg/kg): did not prevent psychomotor sensitization; effect on locomotor-stimulating effect of (R)-MTD (10 mg/kg, sc) ([5]; (S)-MTD 10, 30 mg/kg sc, 15 min before (R)-MTD): dose-dependently counteracted; affinity for the MOR, times greater than affinity for the NMDAR [8, 15]: ~ 300 times; affinity at NMDARs [8]: 2.6 to 7.4 µM"
